Data as given in patent US20240050385A1, “METHODS OF TREATING LEPTOMENINGEAL METASTASIS” (MEMORIAL SLOAN-KETTERING CANCER CENTER, priority 2020, published 2024).
Entries after “also recorded” stand apart in the source; their conditions may differ. Counter-ions that a name gives are not always drawn.

Assays:
[1] = IT-DFO dose escalation toxicity in healthy C57BL6/J mice; assay type: in vivo, mouse
Experimental: An IT-DFO dose escalation experiment was completed to determine the lethal dose to 10% of rodents (LD10) and any dose-dependent toxicities to the systemic circulation and organ function in a mouse model. In this study, healthy C57BL6/J mice were injected intracistemally with either PBS (control) or with a fixed dose of DFO (0.05 μM, 1 μM, 10 μM, 50 μM and 100 μM) in replicate at a schedule of twice weekly for a total of 6 weeks (42 days). Mice were monitored for weekly weights and survival trends. Remaining mice were sacrificed on day 46 and circulating blood collected via cardiac puncture. Blood was sent for complete blood count (CBC) with automated differential and complete metabolic panels (CMP).

[2] = system: LeptoM cells; experiment: Iron Assay, chelation assay in vitro (intracellular iron); assay type: cell-based, human; details: PC9-LeptoM and MDA231-LeptoM cells; 0, 1, 10, 100 μM; in words
Excerpt: FIG. 16A-16L. Iron chelator treatment reduces CSF iron. (A) Experimental scheme. Mice were inoculated with 2×10^3 cells intrathecally on day 0. Treatment with either vehicle, DFO, or D-pen was commenced on either day 1 or day 7 and continued every third day for a total of 7 doses. (B) Chelators delivered intrathecally. DFO, Deferoxamine. D-Pen, D-Penicillamine. (C-F) Intracellular iron (C and E) and viability (D and F) of PC9-LeptoM cells and MDA231-LeptoM cells after treatment with chelators in different concentrations (0 μM, 1 μM, 10 μM and 100 μM). n=3-4 per group in each of two independent experiments. * indicates p<0.05, ** indicates p<0.01, ***indicates p<0.001, **** indicates p<0.0001 (unpaired t test). Data represent mean±SEM. (G) Growth of PC9-LeptoM tumor after treatment indicated in (A). Left: in vivo BLI imaging in day 28 post-inoculation. n=8-10 per group in each of two independent experiments. Right: Representative BLI images. **** indicates p<0.0001. Data represent mean±SEM. (H) Kaplan-Meier survival curve from (C) and (E). p<0.0001. (I and J) Total iron concentration measured in CSF samples of mice with treatment of chelators in PC9-LeptoM Model (I) in MDA231-LeptoM model (J). […]
Iron Assay. […] The Iron Assay Kit (Sigma-Aldrich, MAK025) was used to quantify total iron in the intracellular contents and culture supernatant following the manufacturer's protocols. […]

For `CC(=O)N(O)CCCCCNC(=O)CCC(=O)N(O)CCCCCNC(=O)CCC(=O)N(O)CCCCCN` [DFO, Deferoxamine mesylate], the “lethality with cumulative twice weekly dosing (LD for % rodents)” value ([1]; 10 μM group, one mouse died at day 24, total N=12) was 8.3%, the “lethality with cumulative twice weekly dosing (LD for % rodents)” value ([1]; 50 μM group, one mouse died at day 46, total N=8) was 12.5% and the “lethality following a single dose” value ([1]; any tested concentration (0.05, 1, 10, 50, 100 μM)) was “no mice died”. The “tolerability of intracisternal administration” value ([1]; mouse, in vivo) was “well tolerated” and the “iron levels within the LeptoM cells” value [2] was “substantially suppressed; also recorded: dramatically suppressed”.
